The target of assay [1] is T1, FLhPIF1 (Homo sapiens, UniProt Q9H611).
T1 construct: Full length human PIF1 (FLhPIF1) was expressed and purified as a His-SUMO fusion; His-SUMO (cleaved yes); made in house; 'following similar protocols' to hPIF1HD (ArcticExpress BL21(DE3) E. coli)
T1 sequence (Q9H611 1-641): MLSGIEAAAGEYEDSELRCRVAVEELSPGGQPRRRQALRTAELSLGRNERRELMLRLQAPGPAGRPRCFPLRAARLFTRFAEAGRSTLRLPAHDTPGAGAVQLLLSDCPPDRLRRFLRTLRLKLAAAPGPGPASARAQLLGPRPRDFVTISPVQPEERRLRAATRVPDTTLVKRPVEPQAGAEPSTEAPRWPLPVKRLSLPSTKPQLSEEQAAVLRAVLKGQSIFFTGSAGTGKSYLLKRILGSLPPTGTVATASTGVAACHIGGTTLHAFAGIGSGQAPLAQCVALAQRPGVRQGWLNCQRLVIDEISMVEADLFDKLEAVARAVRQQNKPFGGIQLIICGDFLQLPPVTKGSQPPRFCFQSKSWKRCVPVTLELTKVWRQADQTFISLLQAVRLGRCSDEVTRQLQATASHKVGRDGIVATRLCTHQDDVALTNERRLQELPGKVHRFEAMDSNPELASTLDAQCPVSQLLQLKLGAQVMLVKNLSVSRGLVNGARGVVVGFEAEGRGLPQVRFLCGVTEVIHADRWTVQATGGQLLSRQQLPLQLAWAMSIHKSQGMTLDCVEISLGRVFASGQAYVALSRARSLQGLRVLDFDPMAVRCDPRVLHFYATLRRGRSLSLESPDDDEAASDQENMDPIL
Put plainly: helicase assay after pre-incubation of SMI with FLhPIF1. The following applies: for pre-incubation time-course, inhibition of unwinding: 0–3 h pre-incubation, 100 nM FLhPIF1, 100 μM SMI, n = 4; for effect of pre-incubation on inhibition of unwinding: 100 μM SMI with 100 nM FLhPIF1, 1 h at 22°C, then 1:10 dilution, compared to no pre-incubation; for IC50: 2 h pre-incubation at 22°C with 100 nM FLhPIF1, then 1:10 dilution into helicase assay, read-out: IC50 for dsDNA unwinding by FLhPIF1 following pre-incubation. Type of assay: biochemical. The protocol:
Helicase activity was assayed using a radiometric strand displacement assay employing a partially single- and double-stranded substrate generated by annealing two oligonucleotides: 5′-(T)55-[…] and 5′-[…], as described previously ([19],[28]). The reaction buffer was 20 mM HEPES–NaOH pH 7.5, 20 mM NaCl, 5.5 mM MgCl2, 5 mM ATP, 1 mM DTT and 0.1 mg/ml BSA. SMIs (100 mM stocks in DMSO) were assayed at up to 2 mM without pre-incubation with FLhPIF1, unless otherwise stated. Reactions (0.1 nM substrate) were incubated at 37°C for 20 min, followed by addition of 0.2 volumes of 120 mM EDTA, 0.6% (w/v) SDS, 60% (v/v) glycerol and 0.1% (w/v) bromophenol blue before resolution of products by polyacrylamide gel electrophoresis (8%, 19:1 acrylamide:bis-acrylamide), 1× TBE (90 mM Tris–borate/2 mM EDTA, pH 8.3 with 0.05% (w/v) SDS buffer). Dried gels were exposed to phosphorimaging plates (Fujifilm) for imaging and quantification (Fuji FLA3000, image gauge V3.3 software). IC50 values were analysed by non-linear regression (variable slope) using GraphPad Prism.
First, we screened inhibitory activity of the SMIs listed in Table 1, following incubation of 100 nM FLhPIF1 with 100 μM SMI for 1 h at 22°C in the absence of substrates (ATP and DNA), before a 1:10 dilution into helicase reactions. […] Next, compounds 2, 5, 6 and 11, along with 4 and 1D were selected for analysis in a pre-incubation time-course (100 nM FLhPIF1, 100 μM SMI), up to 3 h before assaying helicase activity.
In parallel, IC50 values for inhibition of human UPF1 (hUPF1) helicase activity by the SMIs were also determined under the same conditions. UPF1-like SF1B helicases are the most closely related family of helicases to PIF1, with significant structural and mechanistic similarity ([52]).
Figure 6. SMI IC50 for dsDNA unwinding determined following pre-incubation. SMIs (0.0078–2 mM SMI) were incubated for 2 h at 22°C (100 nM FLhPIF1 or hUPF1) before dilution (1:10) in the standard helicase assay (0.1 nM DNA substrate). For 1D and 6, structures, electrophoresis of FLhPIF1 reaction product and graphs for IC50 value determination are shown. The graphed data include the activity of SMIs towards hUPF1 and IC50 values obtained are given. See Supplementary Figure S14 for the complete data set. TEXT PRINTED IN THE PICTURE: 1D: IC50 (μM): PIF1: 978 ± 221; IC50 (μM): UPF1: N.D. | 6: IC50 (μM): PIF1: 79.4 ± 16; IC50 (μM): UPF1: 1750 ± 426

Assay [2] deals with T1, FLhPIF1. The assay is described as follows: DNA-dependent ATPase assay. Type of assay: biochemical. The following applies: 1 mM compound, 25 nM FLhPIF1, 250 nM d(T)55, 10 min at 37°C. On the procedure: ATP hydrolysis was measured under helicase reaction conditions with 25 nM FLhPIF1 and 250 nM oligo d(T)55 and 0.0125 μM [γ-^32P]ATP (6000 Ci/mmol). Released phosphate was quantified using the charcoal binding assay of Iggo and Lane ([45]) after 10 min at 37°C.
Supplementary Figure 11. ATPase activity determined with and without inhibitors. ATPase assays, 25 nM FLhPIF1, 250 nM d(T)55 ssDNA, were performed for 10 minutes at 37 °C under helicase reaction conditions, with and without 1 mM compound (n = 3). Compound 2 was not included in the analysis due to lack of available material. […] The data are broadly in agreement with the results of ssDNA binding EMSA except compound 6 (see discussion).

As for `CC(=O)c1ccc(-c2csc(N)n2)cc1` [Compound 2], at FLhPIF1 [1], the “pre-incubation time-course, inhibition of unwinding” value is reported as “increasing inhibition with increasing time of pre-incubation”; the “effect of pre-incubation on inhibition of unwinding” value (“effect … on inhibition of unwinding” below) is listed as “significantly enhanced inhibitory activity”; the IC50 (usually the concentration at which inhibition is half-maximal) was found to be 65 ± 25 µM.
For `N#Cc1ccc(-c2csc(N)n2)cc1` [Compound 5], on FLhPIF1 [1], the “pre-incubation time-course, inhibition of unwinding” value is on record as “increasing inhibition with increasing time of pre-incubation”; the “effect … on inhibition of unwinding” value is reported as “significantly enhanced inhibitory activity”; the IC50 is 67.4 ± 20 µM.
Turning to `Nc1nc(-c2ccc(C(=O)c3ccccc3)cc2)cs1` [Compound 6], at FLhPIF1 [1], the “pre-incubation time-course, inhibition of unwinding” value is “increasing inhibition with increasing time of pre-incubation”; the “effect … on inhibition of unwinding” value is given as “significantly enhanced inhibitory activity”; the IC50 is 79.4 ± 16 µM. In addition, the “inhibition of DNA-dependent ATPase” value on FLhPIF1 [2] was “effective inhibitor of DNA-dependent ATPase”.
For `CC(=O)Nc1ccc(-c2csc(N)n2)cc1-c1ccc(C)cc1` [Compound 10], at FLhPIF1 [1], the “effect … on inhibition of unwinding” value was “significantly enhanced inhibitory activity”.
For the compound `CC(=O)Nc1ccc(-c2csc(N)n2)cc1C1=CCNCC1` [Compound 11], at FLhPIF1 [1], the “pre-incubation time-course, inhibition of unwinding” value is recorded as “increasing inhibition with increasing time of pre-incubation”; the “effect … on inhibition of unwinding” value is reported as “significantly enhanced inhibitory activity”; the IC50 came out at 109 ± 47 µM.

The record behind these values is article PMC11551755, “Structure-based discovery of first inhibitors targeting the helicase activity of human PIF1” (Nucleic Acids Research, 2024).
